{
  "source": "patent US20090061027A1",
  "about": "“Composition For The Prevention and Treatment Of Common Cold Diseases” (priority 2006, published 2009)",
  "test_system": "A549 cells",
  "assay": "Examination of the apoptotic caspase activation (Western Blot, PARP cleaving)",
  "type": "cell-based",
  "settings": "48 hours, extract 25 and 50 μg/ml, staurosporine as positive control stimulus",
  "description": "To examine the apoptotic caspase activation, A549 cells were treated with 25 and 50 μg/ml of the extract for 48 hours. The cells were then lysed, and the cellular proteins were separated using gel electrophoresis and examined in the Western Blot with an antiPARP antibody (Poly(ADP-Ribose) polymerase, caspase substrate) for the apoptotic cleaving of this protein by caspases. The apoptosis-inductor staurosporine served as the positive control stimulus. The experiments were conducted in two parallel batches.",
  "data": [
    {"smiles": "CN[C@@H]1C[C@H]2O[C@@](C)([C@@H]1OC)n1c3ccccc3c3c4c(c5c6ccccc6n2c5c31)C(=O)NC4", "note": "[staurosporine]", "values": [
      {"measurement": "caspase activation / apoptotic cleaving of PARP", "value": "efficient cleaving of the caspase substrate"}
    ]}
  ]
}
